From the CheMixHub ionic liquid set
± gives the uncertainty stated by the source.

Assay: xn = mol fraction of the nth substance listed

NCCO + CCCC[n+]1ccn(C)c1.F[P-](F)(F)(F)(F)F
electrical conductivity (288.15 K, 101 kPa, x1 = 1): 0.00163 ± 1e-05 S/m
viscosity (288.15 K, 101 kPa, x1 = 1): 31 ± 12 mPa·s
electrical conductivity (293.15 K, 101 kPa, x1 = 1): 0.00189 ± 1e-05 S/m
viscosity (293.15 K, 101 kPa, x1 = 1): 23.7 ± 9.5 mPa·s
electrical conductivity (298.15 K, 101 kPa, x1 = 1): 0.00227 ± 1e-05 S/m
electrical conductivity (303.15 K, 101 kPa, x1 = 1): 0.00272 ± 1e-05 S/m
electrical conductivity (308.15 K, 101 kPa, x1 = 1): 0.00321 ± 1e-05 S/m
electrical conductivity (313.15 K, 101 kPa, x1 = 1): 0.00357 ± 1e-05 S/m
electrical conductivity (318.15 K, 101 kPa, x1 = 1): 0.00622 ± 1e-05 S/m
viscosity (318.15 K, 101 kPa, x1 = 1): 8.1 ± 3.2 mPa·s
electrical conductivity (323.15 K, 101 kPa, x1 = 1): 0.00689 ± 1e-05 S/m

CC[n+]1ccn(C)c1.COS(=O)(=O)[O-] + CCO
viscosity (283.15 K, 101 kPa, x1 = 0.0561): 2.15 ± 0.07 mPa·s
viscosity (283.15 K, 101 kPa, x1 = 0.112): 2.99 ± 0.07 mPa·s
viscosity (283.15 K, 101 kPa, x1 = 0.213): 5.56 ± 0.08 mPa·s
viscosity (283.15 K, 101 kPa, x1 = 0.3285): 9.85 ± 0.1 mPa·s
viscosity (283.15 K, 101 kPa, x1 = 0.356): 11.14 ± 0.44 mPa·s
viscosity (283.15 K, 101 kPa, x1 = 0.525): 23.46 ± 0.47 mPa·s
viscosity (283.15 K, 101 kPa, x1 = 0.632): 38.01 ± 0.53 mPa·s
viscosity (283.15 K, 101 kPa, x1 = 0.7294): 55 ± 1.9 mPa·s
viscosity (283.15 K, 101 kPa, x1 = 0.8202): 76.5 ± 2.2 mPa·s
viscosity (283.15 K, 101 kPa, x1 = 0.9108): 106.9 ± 3.2 mPa·s
viscosity (283.15 K, 101 kPa, x1 = 0.9556): 124.7 ± 4 mPa·s
viscosity (283.15 K, 101 kPa, x1 = 1): 141 ± 5 mPa·s
viscosity (293.15 K, 101 kPa, x1 = 0.0561): 1.77 ± 0.07 mPa·s
viscosity (293.15 K, 101 kPa, x1 = 0.112): 2.44 ± 0.07 mPa·s
viscosity (293.15 K, 101 kPa, x1 = 0.213): 4.37 ± 0.08 mPa·s
viscosity (293.15 K, 101 kPa, x1 = 0.3285): 7.62 ± 0.09 mPa·s
viscosity (293.15 K, 101 kPa, x1 = 0.356): 8.61 ± 0.1 mPa·s
viscosity (293.15 K, 101 kPa, x1 = 0.525): 17.1 ± 0.45 mPa·s
viscosity (293.15 K, 101 kPa, x1 = 0.632): 26.49 ± 0.48 mPa·s
viscosity (293.15 K, 101 kPa, x1 = 0.7294): 36.84 ± 0.52 mPa·s
viscosity (293.15 K, 101 kPa, x1 = 0.8202): 49.25 ± 0.59 mPa·s
viscosity (293.15 K, 101 kPa, x1 = 0.9108): 66 ± 2 mPa·s
viscosity (293.15 K, 101 kPa, x1 = 0.9556): 75.7 ± 2.2 mPa·s
viscosity (293.15 K, 101 kPa, x1 = 1): 84.1 ± 2.4 mPa·s
viscosity (303.15 K, 101 kPa, x1 = 0.0561): 1.48 ± 0.07 mPa·s
viscosity (303.15 K, 101 kPa, x1 = 0.112): 2.02 ± 0.07 mPa·s
viscosity (303.15 K, 101 kPa, x1 = 0.213): 3.53 ± 0.07 mPa·s
viscosity (303.15 K, 101 kPa, x1 = 0.3285): 6.01 ± 0.08 mPa·s
viscosity (303.15 K, 101 kPa, x1 = 0.356): 6.78 ± 0.09 mPa·s
viscosity (303.15 K, 101 kPa, x1 = 0.525): 12.99 ± 0.44 mPa·s
viscosity (303.15 K, 101 kPa, x1 = 0.632): 19.73 ± 0.46 mPa·s
viscosity (303.15 K, 101 kPa, x1 = 0.7294): 26.04 ± 0.48 mPa·s
viscosity (303.15 K, 101 kPa, x1 = 0.8202): 33.81 ± 0.51 mPa·s
viscosity (303.15 K, 101 kPa, x1 = 0.9108): 43.92 ± 0.57 mPa·s
viscosity (303.15 K, 101 kPa, x1 = 0.9556): 49.57 ± 0.61 mPa·s
viscosity (303.15 K, 101 kPa, x1 = 1): 57.9 ± 2 mPa·s
viscosity (313.15 K, 101 kPa, x1 = 0.0561): 1.24 ± 0.07 mPa·s
viscosity (313.15 K, 101 kPa, x1 = 0.112): 1.7 ± 0.07 mPa·s
viscosity (313.15 K, 101 kPa, x1 = 0.213): 2.81 ± 0.07 mPa·s
viscosity (313.15 K, 101 kPa, x1 = 0.3285): 4.85 ± 0.08 mPa·s
viscosity (313.15 K, 101 kPa, x1 = 0.356): 5.44 ± 0.08 mPa·s
viscosity (313.15 K, 101 kPa, x1 = 0.525): 10.15 ± 0.44 mPa·s
viscosity (313.15 K, 101 kPa, x1 = 0.632): 14.91 ± 0.44 mPa·s
viscosity (313.15 K, 101 kPa, x1 = 0.7294): 19.5 ± 0.46 mPa·s
viscosity (313.15 K, 101 kPa, x1 = 0.8202): 24.48 ± 0.47 mPa·s
viscosity (313.15 K, 101 kPa, x1 = 0.9108): 30.93 ± 0.5 mPa·s
viscosity (313.15 K, 101 kPa, x1 = 0.9556): 34.48 ± 0.52 mPa·s
viscosity (313.15 K, 101 kPa, x1 = 1): 39.54 ± 0.55 mPa·s
viscosity (323.15 K, 101 kPa, x1 = 0.0561): 1.04 ± 0.07 mPa·s
viscosity (323.15 K, 101 kPa, x1 = 0.112): 1.44 ± 0.07 mPa·s
viscosity (323.15 K, 101 kPa, x1 = 0.213): 2.36 ± 0.07 mPa·s
viscosity (323.15 K, 101 kPa, x1 = 0.3285): 3.98 ± 0.07 mPa·s
viscosity (323.15 K, 101 kPa, x1 = 0.356): 4.44 ± 0.08 mPa·s
viscosity (323.15 K, 101 kPa, x1 = 0.525): 8.15 ± 0.09 mPa·s
viscosity (323.15 K, 101 kPa, x1 = 0.632): 11.58 ± 0.44 mPa·s
viscosity (323.15 K, 101 kPa, x1 = 0.7294): 15 ± 0.44 mPa·s
viscosity (323.15 K, 101 kPa, x1 = 0.8202): 18.59 ± 0.45 mPa·s
viscosity (323.15 K, 101 kPa, x1 = 0.9108): 22.87 ± 0.47 mPa·s
viscosity (323.15 K, 101 kPa, x1 = 0.9556): 25.22 ± 0.48 mPa·s
viscosity (323.15 K, 101 kPa, x1 = 1): 28.33 ± 0.49 mPa·s

CCCCCC[n+]1ccn(C)c1.O=S(=O)([N-]S(=O)(=O)C(F)(F)F)C(F)(F)F + CN(CCO)CCO
viscosity (303.15 K, 101 kPa, x2 = 0): 58.3 ± 2 mPa·s
viscosity (303.15 K, 101 kPa, x2 = 0.801): 49.3 ± 2.5 mPa·s
viscosity (308.15 K, 101 kPa, x2 = 0.0989): 45.6 ± 2.3 mPa·s
viscosity (308.15 K, 101 kPa, x2 = 0.3999): 34 ± 1.7 mPa·s
viscosity (313.15 K, 101 kPa, x2 = 0.3999): 31.4 ± 1.6 mPa·s
viscosity (313.15 K, 101 kPa, x2 = 0.6075): 30 ± 1.5 mPa·s
viscosity (313.15 K, 101 kPa, x2 = 0.899): 36.2 ± 1.9 mPa·s
viscosity (318.15 K, 101 kPa, x2 = 0.7049): 25.3 ± 1.3 mPa·s
viscosity (323.15 K, 101 kPa, x2 = 0.2977): 24.1 ± 1.2 mPa·s
viscosity (323.15 K, 101 kPa, x2 = 0.7049): 22.9 ± 1.2 mPa·s

CCCCCC[n+]1ccn(C)c1.O=S(=O)([N-]S(=O)(=O)C(F)(F)F)C(F)(F)F + O=C1CCCO1
electrical conductivity (293.15 K, 100 kPa, frequency 0.005 MHz, x2 = 0.2973): 0.296 ± 0.009 S/m
electrical conductivity (293.15 K, 100 kPa, frequency 0.005 MHz, x2 = 0.9001): 1.11 ± 0.034 S/m
electrical conductivity (293.15 K, 100 kPa, frequency 0.005 MHz, x2 = 0.9493): 0.746 ± 0.025 S/m
electrical conductivity (298.15 K, 100 kPa, frequency 0.005 MHz, x2 = 0.1076): 0.261 ± 0.008 S/m
electrical conductivity (298.15 K, 100 kPa, frequency 0.005 MHz, x2 = 0.9493): 0.819 ± 0.028 S/m
electrical conductivity (303.15 K, 100 kPa, frequency 0.005 MHz, x2 = 0): 0.273 ± 0.008 S/m
electrical conductivity (303.15 K, 100 kPa, frequency 0.005 MHz, x2 = 0.4956): 0.657 ± 0.02 S/m
electrical conductivity (303.15 K, 100 kPa, frequency 0.005 MHz, x2 = 0.9001): 1.34 ± 0.041 S/m
electrical conductivity (308.15 K, 100 kPa, frequency 0.005 MHz, x2 = 0): 0.33 ± 0.01 S/m
electrical conductivity (308.15 K, 100 kPa, frequency 0.005 MHz, x2 = 0.1076): 0.387 ± 0.012 S/m
electrical conductivity (308.15 K, 100 kPa, frequency 0.005 MHz, x2 = 0.2973): 0.514 ± 0.016 S/m
electrical conductivity (308.15 K, 100 kPa, frequency 0.005 MHz, x2 = 0.9001): 1.45 ± 0.044 S/m
electrical conductivity (313.15 K, 100 kPa, frequency 0.005 MHz, x2 = 0.1076): 0.459 ± 0.014 S/m
electrical conductivity (313.15 K, 100 kPa, frequency 0.005 MHz, x2 = 0.2973): 0.596 ± 0.018 S/m
electrical conductivity (313.15 K, 100 kPa, frequency 0.005 MHz, x2 = 0.6996): 1.31 ± 0.04 S/m
electrical conductivity (313.15 K, 100 kPa, frequency 0.005 MHz, x2 = 0.8456): 1.61 ± 0.048 S/m
electrical conductivity (318.15 K, 100 kPa, frequency 0.005 MHz, x2 = 0.2973): 0.687 ± 0.021 S/m
electrical conductivity (318.15 K, 100 kPa, frequency 0.005 MHz, x2 = 0.8456): 1.73 ± 0.052 S/m
electrical conductivity (318.15 K, 100 kPa, frequency 0.005 MHz, x2 = 0.9493): 1.11 ± 0.038 S/m
electrical conductivity (323.15 K, 100 kPa, frequency 0.005 MHz, x2 = 0): 0.553 ± 0.017 S/m
electrical conductivity (323.15 K, 100 kPa, frequency 0.005 MHz, x2 = 0.1076): 0.624 ± 0.019 S/m
electrical conductivity (323.15 K, 100 kPa, frequency 0.005 MHz, x2 = 0.2973): 0.788 ± 0.024 S/m
electrical conductivity (323.15 K, 100 kPa, frequency 0.005 MHz, x2 = 0.8001): 1.85 ± 0.056 S/m
electrical conductivity (323.15 K, 100 kPa, frequency 0.005 MHz, x2 = 0.8456): 1.88 ± 0.057 S/m
